This is an account of results in US10576088B2, “Compositions comprising finafloxacin and Tris” (MerLion Pharmaceuticals Pte. Ltd., priority 2014, dated 2020).

For one data set, the system named is pathogen in the urine. Briefly: Microbiological cure in patients with complicated urinary tract infections and pyelonephritis. Conditions: intravenous 800 mg once daily, composition with 0.01 M Tris, 17 days after start of treatment, cure = pathogen in urine ≤10^3 cfu/ml. It is filed as in vivo, human. Here is the method: 4.3 Patients with complicated urinary tract infections and pyelonephritis were treated with an intravenous dose of 800 mg Finafloxacin once daily. 17 days after the start of the treatment the microbiological cure results were determined. Microbiological cure is defined as the reduction of the concentration of the pathogen in the urine to a titer of ≤10^3 cfu/ml. The finafloxacin composition comprising 0.01 M Tris caused an efficient eradication of the pathogens. The microbiological cure rate was 83%.

The next data set relates to S. aureus 29213. Nature of the data set: In vitro susceptibility test (MIC), finafloxacin composition with Tris. In kind it is cell-based. The conditions noted are these: Staphylococcus aureus, composition at pH 8.0 containing 0.05 M Tris, read-out: minimal inhibitory concentration (MIC). Here is the method: (§1) The efficacy of finafloxacin compositions including Tris between pH 8.0-8.5 was examined and determined as follows:
(§2) 4.1 Bacteria were incubated in a finafloxacin composition at pH 8.0 containing 0.05 M Tris and the minimal inhibitory concentration (MIC) of finafloxacin, defined as the minimal finafloxacin concentration that inhibited the growth of the bacterium, was determined using a standard in vitro susceptibility test.

The test system of another data set is E. coli 25922. The description is as above. In kind it is cell-based. Conditions: Escherichia coli, composition at pH 8.0 containing 0.05 M Tris, read-out: minimal inhibitory concentration (MIC). Here is the method:
as §1, §2

The nature of data set [1]: 2-week intravenous toxicological appraisal in rats. In kind it is in vivo. The conditions noted are these: 2 weeks, 60, 120 and 200 mg/kg/day, in 0.01 M Tris, 0.75% (w/v) sodium chloride, pH 8.5. From the text: The test article was formulated in 0.01 M Tris containing sodium chloride to 0.75% (w/v), adjusted in water for injection to pH 8.5.
Data set [2] in a line: Solubility of finafloxacin HCl in Tris, phosphate and pH-adjusted WfI (Example 1). It is filed as physicochemical. Here is the method: The solubility of finafloxacin, in form of its mono-hydrochloride salt, was tested at pH values between 7.3 and 9.0, using the following solutions: 0.01 M Tris: Water for injection 800 ml, Tris 1.21 g, sodium chloride 7.5 g, water for injection ad 1000 ml; pH was adjusted with HCl/NaOH. 0.025 M Phosphate: Water for injection 800 ml, sodium dihydrogen phosphate 1.950 g, disodium hydrogen phosphate 2.225 g, sodium chloride 7.5 g, water for injection ad 1000 ml; pH was adjusted with HCl/NaOH. WfI: Water for injection 900 ml, sodium chloride 7.5 g, water for injection ad 1000 ml; pH was adjusted with HCl/NaOH.

The nature of data set [3]: Stability of finafloxacin composition comprising Tris (Example 3). It is filed as physicochemical. The conditions noted are these: solution of 3.20 g/l finafloxacin, 7.80 g/l NaCl, 1.21 g/l Tris, pH 8.25, water for injection. The text has this: The following composition was used to test the stability: [table]
For another data set, the system named is E. coli ATCC 25922. Briefly: Mouse intraperitoneal infection model, bacterial burden. In kind it is in vivo. The conditions noted are these: mice, composition with 0.01 M Tris, doses 4 and 12 hours post infection, burden 24 hours post infection. Here is the method: 4.2 Mice were infected with 3.9×10^5 E. coli ATCC 25922 suspended in 1% porcine mucin administered by a 0.5 ml intraperitoneal injection. Antibacterial treatment with a finafloxacin composition comprising 0.01 M Tris was initiated 4 hours post infection with a second dose 12 hours post infection. The bacterial burden in the peritoneal fluid and blood culture was determined 24 hours post infection. Finafloxacin was effective at all doses with 1 mg/kg causing a reduction in burden of 3.1 log 10 cfu/g, finafloxacin administered at 3, 10 and 30 mg/kg were increasingly effective causing reductions of 4.4, 5.0 and 6.5 log 10 cfu/g, respectively.

The nature of data set [4]: Solubility of finafloxacin HCl in different concentrations of Tris solutions (Example 2). In kind it is physicochemical. Here is the method: 0.25 M Tris: Water for injection 800 ml, Tris 30.3 g, sodium chloride 7.5 g, water for injection ad 1000 ml; pH was adjusted with HCl/NaOH. 0.17 M Tris: Water for injection 800 ml, Tris 20.0 g, sodium chloride 7.5 g, water for injection ad 1000 ml; pH was adjusted with HCl/NaOH. 0.08 M Tris: Water for injection 800 ml, Tris 10.0 g, sodium chloride 7.5 g, water for injection ad 1000 ml; pH was adjusted with HCl/NaOH. […] In contrast to example 1 the pH was not re-adjusted after the stepwise addition of finafloxacin.

The structures appear in SMILES notation. ≈ marks a conversion by molar mass, not a printed value. A value given as a limit tells only on which side of the number the result lay.

`N#Cc1c(N2C[C@@H]3NCCO[C@H]3C2)c(F)cc2c(=O)c(C(=O)O)cn(C3CC3)c12` [Finafloxacin, (−)-8-cyano-1-cyclopropyl-6-fluoro-7-[(4aS,7aS)-hexahydropyrrolo[3,4-b]-1,4-oxazin-6(2H)-yl]-4-oxo-1,4-dihydroquinoline-3-carboxylic acid] gave a microbiological cure rate in the data set on pathogen in the urine of 83%. Besides, the MIC with S. aureus 29213 came to 0.5 µg/mL (≈ 1.26 µM); with E. coli 25922 it was 0.25 µg/mL (≈ 0.628 µM). In addition, the tolerability entry in data set [1] is “generally well tolerated”. For the same compound, in data set [2] (0.01 M Tris versus WfI and phosphate buffer), the increase in solubility is 3-4 fold. Also, the long term stability entry in data set [3] was “at least 24 months”. Besides, the reduction in burden with E. coli ATCC 25922 (1 mg/kg) was determined as 3.1 log 10 cfu/g; with E. coli ATCC 25922 (3 mg/kg), 4.4 log 10 cfu/g; in the data set on E. coli ATCC 25922 (10 mg/kg), 5.0 log 10 cfu/g; in the data set on E. coli ATCC 25922 (30 mg/kg), 6.5 log 10 cfu/g.

The solubility is how much of the substance goes into solution per volume. Low values mean little dissolved substance, high ones much dissolved substance. With `Cl.N#Cc1c(N2C[C@@H]3NCCO[C@H]3C2)c(F)cc2c(=O)c(C(=O)O)cn(C3CC3)c12` [Finafloxacin HCl], the solubility in data set [2] (0.01 M Tris, pH 7.5, pH re-adjusted) was 6000 µg/mL; in data set [2] (0.01 M Tris, pH 8.0, pH re-adjusted) it was 15000 µg/mL; in data set [2] (0.01 M Tris, pH 8.5, pH re-adjusted), greater than 28000 µg/mL; in data set [2] (0.01 M Tris, pH 9.0, pH re-adjusted), greater than 28000 µg/mL; in data set [2] (0.025 M Phosphate, pH 7.5, pH re-adjusted) it was 2000 µg/mL; in data set [2] (0.025 M Phosphate, pH 8.0, pH re-adjusted) it was 4000 µg/mL. Further, the solubility in data set [2] (0.025 M Phosphate, pH 8.5, pH re-adjusted) was 6000 µg/mL; in data set [2] (0.025 M Phosphate, pH 9.0, pH re-adjusted), 8000 µg/mL; in data set [2] (pH-adjusted WfI, pH 7.5) it was 2000 µg/mL; in data set [2] (pH-adjusted WfI, pH 8.0), 4000 µg/mL; in data set [2] (pH-adjusted WfI, pH 8.5), 6000 µg/mL; in data set [2] (pH-adjusted WfI, pH 9.0) it was 6000 µg/mL. Also, the solubility in data set [4] (0.08 M Tris, pH 7.8, pH not re-adjusted) came to 4000 µg/mL; in data set [4] (0.08 M Tris, pH 8.2, pH not re-adjusted), 6000 µg/mL; in data set [4] (0.08 M Tris, pH 8.6, pH not re-adjusted) it was 9000 µg/mL; in data set [4] (0.08 M Tris, pH 9.0, pH not re-adjusted) it was 10000 µg/mL; in data set [4] (0.17 M Tris, pH 7.4, pH not re-adjusted) it was 2000 µg/mL; in data set [4] (0.17 M Tris, pH 7.8, pH not re-adjusted), 6000 µg/mL. For the same compound, the solubility in data set [4] (0.17 M Tris, pH 8.2, pH not re-adjusted) is 10000 µg/mL; in data set [4] (0.17 M Tris, pH 8.6, pH not re-adjusted), 19000 µg/mL; in data set [4] (0.17 M Tris, pH 9.0, pH not re-adjusted), 23000 µg/mL; in data set [4] (0.25 M Tris, pH 7.4, pH not re-adjusted) it was 2000 µg/mL; in data set [4] (0.25 M Tris, pH 7.8, pH not re-adjusted) it was 8000 µg/mL; in data set [4] (0.25 M Tris, pH 8.2, pH not re-adjusted), 15000 µg/mL. The solubility in data set [4] (0.25 M Tris, pH 8.6, pH not re-adjusted) was determined as 24000 µg/mL; in data set [4] (0.25 M Tris, pH 9.0, pH not re-adjusted), 28000 µg/mL.
